ChEMBL document CHEMBL5614403, “Efficient synthesis of novel 1,10 phenanthroline-substituted imidazolium salts: Exploring their anticancer applications” (Eur J Med Chem, 2024)
pIC50: −log10 of the molar value.

Legend:
[1] = system: MCF7; assay: Cytotoxicity against human MCF7 cells assessed as cell viability incubated for 72 hrs by MTT assay; format: functional, cell-based; conditions: MCF7, 72 h
[2] = system: MDA-MB-231; assay: Cytotoxicity against human MDA-MB-231 cells assessed as cell viability incubated for 72 hrs by MTT assay; format: functional, cell-based; conditions: MDA-MB-231, 72 h
[3] = system: MCF-10A; assay: Cytotoxicity against human MCF-10A cells assessed as cell viability incubated for 72 hrs by MTT assay; format: functional, cell-based
[4] = system: MDA-MB-231; assay: Cytotoxicity against human MDA-MB-231 cells assessed as cell viability at 100 uM incubated for 72 hrs by MTT assay relative to control; format: functional; conditions: read-out: Activity
[5] = system: MCF7; assay: Cytotoxicity against human MCF7 cells assessed as cell viability at 100 uM incubated for 72 hrs by MTT assay relative to control; format: functional; conditions: read-out: Activity
[6] = system: HepG2; assay: Antitumor activity against human HepG2 cells incubated for 72 hrs by MTT assay; format: functional, cell-based; conditions: HepG2, 72 h
[7] = Stability of compound in D2O/DMSO-d6 (20:80) measured upto 1 day by 1H NMR spectroscopic analysis; format: physicochemical; conditions: 24 h
[8] = Selectivity index, ratio of IC50 for human MCF-10A cells to ratio of IC50 for human MDA-MB-231 cells; format: toxicity; conditions: MCF-10A cells versus MDA-MB-231 cells, read-out: Selectivity Index
[9] = Selectivity index, ratio of IC50 for human MCF-10A cells to ratio of IC50 for human MCF-7 cells; format: toxicity; conditions: MCF-10A cells versus MCF-7 cells, read-out: Selectivity Index
[10] = system: MCF7; assay: Induction of apoptosis in human MCF7 cells incubated for 72 hrs by Annexin V-FITC and PI staining based flow cytometry analysis; format: functional
[11] = system: MDA-MB-231; assay: Induction of apoptosis in human MDA-MB-231 cells incubated for 72 hrs by Annexin V-FITC and PI staining based flow cytometry analysis; format: functional
[12] = Downregulation of Bcl-2 mRNA expression level in human MCF7 cells assessed as fold change by qRT-PCR analysis; format: functional
[13] = Downregulation of Bcl-2 mRNA expression level in human MDA-MB-231 cells assessed as fold change by qRT-PCR analysis; format: functional
[14] = Upregulation of Bax mRNA expression level in human MCF7 cells assessed as fold change by qRT-PCR analysis; format: functional
[15] = Upregulation of Bax mRNA expression level in human MDA-MB-231 cells assessed as fold change by qRT-PCR analysis; format: functional
[16] = Stability of compound in D2O/DMSO-d6 (20:80) measured after 2 days by 1H NMR spectroscopic analysis; format: physicochemical; conditions: 48 h; time 2 day
[17] = Stability of compound in 100 % DMSO-d6 by 1H NMR spectroscopic analysis; format: physicochemical; conditions: 168 h, TDE = time-dependent effect, time < 7 day
[18] = system: DNA; assay: Binding affinity to DNA (unknown origin) assessed as intrinsic binding constant at 0 to 15 uM by ultraviolet-visible spectroscopic analysis; format: nucleic-acid assay; conditions: dose 0-15 µM
[19] = system: MCF7; assay: Downregulation of Bcl-2 protein level in human MCF7 cells measured after 24 to 72 hrs by Western blot analysis; format: functional, cell-based; conditions: time 24-72 hrs
[20] = system: MDA-MB-231; assay: Downregulation of Bcl-2 protein level in human MDA-MB-231 cells measured after 24 to 72 hrs by Western blot analysis; format: functional, cell-based; conditions: time 24-72 hrs
[21] = system: MCF7; assay: Upregulation of Bax protein level in human MCF7 cells measured after 24 to 72 hrs by Western blot analysis; format: functional, cell-based; conditions: time 24-72 hrs
[22] = system: MDA-MB-231; assay: Upregulation of Bax protein level in human MDA-MB-231 cells measured after 24 to 72 hrs by Western blot analysis; format: functional, cell-based; conditions: time 24-72 hrs
[23] = system: MCF7; assay: Downregulation of Bcl-2 protein level in human MCF7 cells by Western blot analysis; format: functional, cell-based; conditions: time 24-72 hrs, TDE = time-dependent effect
[24] = system: MDA-MB-231; assay: Downregulation of Bcl-2 protein level in human MDA-MB-231 cells by Western blot analysis; format: functional, cell-based; conditions: time 24-72 hrs, TDE = time-dependent effect
[25] = system: MCF7; assay: Upregulation of Bax protein level in human MCF7 cells by Western blot analysis; format: functional, cell-based; conditions: time 24-72 hrs, TDE = time-dependent effect
[26] = system: MDA-MB-231; assay: Upregulation of Bax protein level in human MDA-MB-231 cells by Western blot analysis; format: functional, cell-based; conditions: time 24-72 hrs, TDE = time-dependent effect

| Structure (SMILES) | pIC50 [1] | pIC50 [2] | pIC50 [3] | viability at 100 µM [4] | viability at 100 µM [5] | other results |
| --- | --- | --- | --- | --- | --- | --- |
| CCCCCCCC[n+]1ccn(-c2cc3cccnc3c3ncccc23)c1 | 4.30 | 4.75 | 4.45 | 10.1% | 21.1% |  |
| c1cnc2c(c1)cc(-n1ccnc1)c1cccnc12 | 3.89 | 4.22 | 3.62 | 39.7% | 61.3% |  |
| c1ccc(C[n+]2ccn(-c3cc4cccnc4c4ncccc34)c2)cc1 | 4.28 | 4.53 | 4.33 |  |  |  |
| Cc1cc(C)c(C[n+]2ccn(-c3cc4cccnc4c4ncccc34)c2)c(C)c1 | 4.19 | 4.49 | 4.44 |  |  |  |
| Cc1c(C)c(C)c(C[n+]2ccn(-c3cc4cccnc4c4ncccc34)c2)c(C)c1C | 4.30 | 4.43 | 4.49 |  |  |  |
| c1ccc(-c2nc3c4cccnc4c4ncccc4c3[nH]2)cc1 |  |  |  |  |  | pIC50 [6]: 6.17 |
| CCCCCCCCCCCC[n+]1ccn(-c2cc3cccnc3c3ncccc23)c1.[Br-] | 4.81 | 4.89 | 4.19 |  |  | Stability [7]: Stable; selectivity ratio [8]: 5; selectivity ratio [9]: 4.1; Activity [10]: 89%; Activity [11]: 95%; fold change (FC) [12]: 3.9; fold change (FC) [13]: 4.2; fold change (FC) [14]: 3.4; fold change (FC) [15]: 3.6; Stability [16]: Unstable; Stability [17]: Tde; Kb [18]: 12600 M⁻¹; Activity [19]: Dose-Dependent Effect; Activity [20]: Dose-Dependent Effect; Activity [21]: Dose-Dependent Effect; Activity [22]: Dose-Dependent Effect; Activity [23]: Tde; Activity [24]: Tde; Activity [25]: Tde; Activity [26]: Tde |
| CCCC[n+]1ccn(-c2cc3cccnc3c3ncccc23)c1 | 4.36 | 4.28 | 4.32 | 25.2% | 4.8% |  |
| COc1cccc2c1C(=O)c1c(O)c3c(c(O)c1C2=O)C[C@@](O)(C(=O)CO)C[C@@H]3O[C@H]1C[C@H](N)[C@H](O)[C@H](C)O1 [DOXORUBICIN] |  | 5.32 |  |  |  |  |
